Measured values from PMC10714399, “Open Source Antibiotics: Simple Diarylimidazoles Are Potent against Methicillin-Resistant Staphylococcus aureus” (ACS Infectious Diseases, 2023).
Values after ≈ are worked out from the molar mass of the structure shown. Like-named read-outs stand apart in the source and are kept apart here.

What was measured:
[1] = Distribution coefficient estimation using chromatography, gLogD (Monash); format: physicochemical; details: gradient HPLC retention against standard compounds, pH 7.4
Excerpt: Partition coefficient values (LogD) of the test compounds were estimated at pH 7.4 by the correlation of their chromatographic retention properties against the characteristics of a series of standard compounds with known partition coefficient values. The method employed is a gradient HPLC-based derivation of the method developed by Lombardo.[42] […]
c) Distribution Coefficient Estimation using Chromatography (gLogDpH)
Partition coefficient values (LogD) of the test compounds were estimated at pH 7.4 by correlation of their
chromatographic retention properties against the characteristics of a series of standard compounds with known
partition coefficient values. […]
(§1) In Vitro Intrinsic Clearance […]
(§2) Experimental results are tabulated on the following page(s).
(§3) (1 picture or pasted object on this page, not shown here)

[2] = In vitro metabolic stability, human liver microsomes (Monash); format: in vitro ADME; details: Monash; for microsomal CLint at 1 µM: read-out: HLM Clint (Monash); for half-life at 1 µM: read-out: HLM t1/2 (Monash)
Method: (§4) The metabolic stability assay was performed by incubating each test compound with a suspension of liver microsomes (0.4 mg/mL protein, 1 μM substrate, 37 °C). Microsomes were purchased from XenoTech. The metabolic reaction was initiated by the addition of an NADPH-regenerating system and quenched at various time points over a 60 min incubation by the addition of acetonitrile containing metolazone as an internal standard. Control samples (containing no NADPH) were included (quenched at 2, 30, and 60 min) to monitor for potential degradation in the absence of cofactor. […]
(§5) d) In Vitro Metabolic Stability
(§6) The metabolic stability assay was performed by incubating each test compound with a suspension of liver
(§7) microsomes (0.4 mg/mL, 37°C). The metabolic reaction was initiated by the addition of an NADPH-regenerating
(§8) system and quenched at various time points over a 60 minute incubation by the addition of acetonitrile containing
(§9) metolazone as internal standard. Control samples (containing no NADPH) were included (quenched at 2, 30 and 60
(§10) minutes) to monitor for potential degradation in the absence of cofactor.
(§11) The human liver microsomes used in this experiment were supplied by XenoTech, lot # 1710084.The rat liver
(§12) microsomes used in this experiment were supplied by XenoTech, lot # 1610290. Microsomal incubations were
(§13) performed at a substrate concentration of 1 µM.
(§14) Data analysis and interpretation:
(§15) Substrate depletion as a function of time was analysed as described by Obach (1999) Drug Metab. Dispos., 27:1350-
(§16) 1359. Intrinsic clearance (CLint) values were classified at the limits of low and high clearance bands based on a
(§17) rearrangement of the well stirred model of hepatic elimination. It should be noted that the potential impact of
(§18) compound binding (either in microsomes or in blood) on the relationship between in vitro intrinsic clearance and
(§19) hepatic clearance in vivo has not been accounted for in these studies.
(§20) In Vitro Intrinsic Clearance
(§21) Species (µL/min/mg protein)
(§22) Low Clearance High Clearance
as §2, §3

[3] = test system: Staphylococcus aureus ATCC 43300 MRSA; experiment: CO-ADD antibacterial assay (growth inhibition, MIC), MRSA; format: cell-based; details: read-out: MRSA MIC (CO-ADD)
Method: Hit Confirmation of active compounds by whole cell growth inhibition assays was conducted as an 8-point dose response to determine the Minimum Inhibitory Concentration (MIC), in duplicate (n=2). The inhibition of growth is measured against those microorganisms that […]
Included in the Hit Confirmation were 5 bacteria: Escherichia coli, Klebsiella pneumoniae, Acinetobacter baumannii, Pseudomonas aeruginosa and Staphylococcus aureus, and 2 fungi Candida albicans and Cryptococcus neoformans. […]
Assay Parameters Bacteria Fungi HEK293 Haemolysis […]
Duplicate (n=2) Duplicate (n=2) Duplicate (n=2) Duplicate (n=2)
QC Control MIC: Control MIC: Control CC50: Control HC10:
Non-Binding Non-Binding TC, 384-well Polypropylene
Plates Surface (NBS), Surface (NBS), black wall/clear 384-well and 384-well plate 384-well plate bottom polystyrene 384-
Cation-adjusted Yeast Nitrogen DMEM
Media Mueller Hinton Base supplemented 0.9% NaCl
Hit Confirmation outcomes are detailed in individual Project reports, personalised for each Project Submission for each CO-ADD user.
Please see your data sheet with file extension P0XXX_HC_data.xlsx, for example CO-ADD Project P0100, P0100_HC_data.xlsx
Study: HC_data ID: HC-Procedures & Materials
Date: Last updated June 2018 Confidential Page 3 of 11
as §3
Samples were provided by the collaborator and stored frozen at -20 °C. Samples were prepared in DMSO and water to a final testing concentration of 32 µg/mL or 20 µM (unless otherwise indicated in the data sheet) and serially diluted 1:2 fold for 8 times. Each sample concentration was prepared in 384-well plates, non-binding surface plate (NBS; Corning 3640) for each bacterial/fungal strain, tissue-culture treated (TC-treated; Corning 3712/3764) black for mammalian cell types and polypropylene 384-well (PP; Corning 3657) for haemolysis assays, all in duplicate (n=2), and keeping the final DMSO concentration to a maximum of 0.5%. All the sample preparation was done using liquid handling robots. […]
detailed in the Data sheet for the individual Project.
All bacteria were cultured in Cation-adjusted Mueller Hinton broth (CAMHB) at 37 °C overnight. A sample of each culture was then diluted 40-fold in fresh broth and incubated at 37 °C for 1.5-3 h. The resultant mid-log phase cultures were diluted (CFU/mL measured by OD600), then added to each well of the compound containing plates, giving a cell density of 5×10^5 CFU/mL and a total volume of 50 µL. All the plates were covered and incubated at 37 °C for 18 h without shaking.
Inhibition of bacterial growth was determined measuring absorbance at 600 nm (OD600), using a Tecan M1000 Pro monochromator plate reader. The percentage of growth inhibition was calculated for each well, using the negative control (media only) and positive control (bacteria without inhibitors) on the same plate as references.
The percentage of growth inhibition was calculated for each well, using the negative control (media only) and positive control (bacteria without inhibitors) on the same plate. The MIC […]
by an inhibition ≥ 80%. In addition, the maximal percentage of growth inhibition is reported as DMax, indicating any compounds with partial activity.
Date: Last updated June 2018 Confidential Page 5 of 11
Material Code Brand/Supplier Cat No.
Compound preparation plate, Polypropylene PP Corning 3364
Assay Plates – Antimicrobial
Non-binding surface NBS 384w Corning 3640
Assay Plates – Cytotoxicity
Tissue culture treated Black/Clear bottom 384w Corning 3712
Assay Plates - Haemolysis PP-Haem Corning 3657 […]
Growth media - bacteria CAMHB Bacto Laboratories 212322
Culture agar - fungi YPD Becton Dickinson 242720
Growth media - fungi YNB Becton Dickinson 233520
Resazurin Sigma-Aldrich R7017
Dulbecco's Modified Eagle Medium DMEM Life Technologies 11995-073
Foetal Bovine Serum FBS Bovogen FFBS-500
0.9% NaCl Saline Baxter AHF7124
Sample Name Sample ID MW Conc. Solvent Source […]

[4] = In vitro metabolic stability, rat liver microsomes (Monash); format: in vitro ADME; details: Monash; for microsomal CLint at 1 µM: read-out: RLM Clint (Monash); for half-life at 1 µM: read-out: RLM t1/2 (Monash)
Method: as §4, §5, §6, §7, §8, §9, §10, §11, §12, §13, §14, §15, §16, §17, §18, §19, §20, §21, §22, §2, §3

[5] = Kinetic solubility estimation using nephelometry (Monash); format: physicochemical; details: kinetic from dmso stock
Method: Compound in DMSO was spiked into either pH 6.5 phosphate buffer or 0.01 M HCl (approximately pH 2.0) with the final DMSO concentration being 1%. […]
b) Kinetic Solubility Estimation using Nephelometry (SolpH)
Compound in DMSO was spiked into either pH 6.5 phosphate buffer or 0.01 M HCl (approx pH 2.0) with the final
DMSO concentration being 1%. After 30 minutes had elapsed, samples were then analysed via Nephelometry to
determine a solubility range. See Bevan and Lloyd (2000) Anal Chem, 72:1781-1787. […]
as §1, §2, §3

[6] = Mouse liver microsome (MLM) metabolic stability (UNC); format: in vitro ADME
Excerpt: Supplement id3c00286_si_002.xlsx, sheet "Series 2 Data" | column: MLM Clint (mL/min/kg) (UNC); MLM t1/2 (min) (UNC); MLM E (UNC)

[7] = Rat hepatocyte intrinsic clearance; format: in vitro ADME; details: rat hepatocytes, NEU; for hepatocyte CLint: read-out: Rat Hep CLint (NEU)
[8] = Human liver microsome intrinsic clearance; format: in vitro ADME; details: human liver microsomes, NEU; for microsomal CLint: read-out: HLM CLint (NEU)
[9] = test system: MRC-5SV2 (human lung fibroblast cell line); experiment: Toxicity against MRC-5SV2; format: cell-based; details: MRC5 cells
Method: (§23) ADME and toxicity for compounds were measured according to procedures outlined in the manuscript submitted in parallel to this one;2 other procedures were used for those compounds analysed by Monash University (in vitro ADME) or UCL (toxicity), both described in the main

Aqueous solubility = format: physicochemical; details: NEU; for solubility: thermodynamic from solid, read-out: Aqueous Solubility (NEU)
[10] = test system: Enterococcus faecalis ATCC 51299 (vanA-positive; vancomycin-resistant); experiment: In vitro antibacterial activity, MIC (UCL), VRE; format: cell-based; details: read-out: VRE MIC (UCL)
Outline: (§24)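 MIC determined over 32–0.03 μg/mL in 2-fold steps, with at most 2% DMSO, in isosensitest broth. Organisms were suspended in PBS to A600 0.1 (about 1 × 10^8 CFU/mL), diluted 1:100 and inoculated; vancomycin served as QC compound.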

THP1 = experiment: Toxicity against THP1; format: cell-based; details: THP1 cells
Excerpt: Supplement id3c00286_si_002.xlsx, sheet "Series 2 Data" | column: THP1 TC50 (uM)

[11] = test system: Staphylococcus aureus NCTC 13373 (mecA-positive; methicillin-resistant); experiment: In vitro antibacterial activity, MIC (UCL School of Pharmacy assay), MRSA; format: cell-based; details: Staphylococcus aureus, UCL; read-out: MRSA MIC (UCL)
Outline: as §24

U2OS = experiment: Toxicity against U2OS; format: cell-based; details: U2OS cells
Excerpt: Supplement id3c00286_si_002.xlsx, sheet "Series 2 Data" | column: U2OS TC50 (uM)

[12] = test system: PMM (primary mouse macrophages); experiment: Toxicity against PMM; format: cell-based; details: PMM
Method: as §23

[13] = Human plasma protein binding (PPB); format: in vitro ADME; details: human plasma, NEU; for fraction unbound: human, plasma, read-out: Human PPB (NEU) (converted)
LogD7.4 (Chrom Log D) = format: physicochemical; details: chromatographic system (Chrom Log D); pH 7.4, NEU; read-out: LogD 7.4 (NEU)
[14] = 0.01 M HCl, simulated gastric fluid, pH 2.0, read-out: Sol (pH 2.0) (Monash)
[15] = pH 6.5 phosphate buffer, pH 6.5, aqueous buffer, read-out: Sol (pH 6.5) (Monash)

Row | Compound | chromatographic logD [1] | microsomal CLint at 1 µM [2] | half-life at 1 µM [2] | MIC [3] | microsomal CLint at 1 µM [4] | half-life at 1 µM [4] | solubility kinetic at 30 min [5, 14] | solubility kinetic at 30 min [5, 15] | hepatocyte CLint [7] | microsomal CLint [8] | MRC5 TC50 [9] | solubility (Aqueous solubility) | MIC [10] | THP1 TC50 (THP1) | MIC [11] | U2OS TC50 (U2OS) | PMM TC50 [12] | chromatographic logD (LogD7.4 (Chrom Log D)) | fraction unbound [13] | further results
1 | c1ccc(-c2nc3n(c2-c2ccc4c(c2)OCO4)CCS3)nc1 [OSA_000813] | 1.6 | 37 µL/min/mg | 47 min | 32 µg/mL (≈ 99 µM) | 74 µL/min/mg | 23 min | 25 to 50 µg/mL (≈ 77.3 to 155 µM) | 12.5 to 25 µg/mL (≈ 38.7 to 77.3 µM) |  |  |  |  |  |  |  |  |  |  |  | MLM E (UNC) ([6]; mouse liver microsomes): 0.873; CLint scaled ([6]; mouse, liver microsomes): 619 mL/min/kg; half-life ([6]; mouse, liver microsomes, read-out: MLM t1/2 (UNC)): 9.08 min
2 | c1ccc(-c2nc3ccccn3c2-c2ccc3c(c2)OCO3)nc1 [OSA_000814] | 1.8 | 47 µL/min/mg | 37 min | 32 µg/mL (≈ 101 µM) | 99 µL/min/mg | 18 min | > 100 µg/mL | 25 to 50 µg/mL (≈ 79.3 to 159 µM) |  |  |  |  |  |  |  |  |  |  |  | 
3 | COc1ccn2c(Nc3ccccc3F)c(-c3cnn(C)c3)nc2c1 [OSA_000855] |  |  |  |  |  |  |  |  | 82.3 µL/min/1e6 cells | < 3 µL/min/mg | 64 µM | 22 µM (≈ 7.42 µg/mL) | > 32 µg/mL | 50 µM | > 32 µg/mL | 50 µM | 64 µM |  |  | Human PPB (NEU) [13]: Low recovery,Unstable in plasma
4 | COc1ccn2c(-c3ccc(F)cc3)c(-c3ccccn3)nc2c1 [OSA_000858] |  |  |  |  |  |  |  |  | 25.1 µL/min/1e6 cells | > 300 µL/min/mg | 3.62 µM | 85 µM (≈ 27.1 µg/mL) | > 32 µg/mL | 7.63 µM | 16 µg/mL (≈ 50.1 µM) | 1.28 µM | 8 µM | 2.9 | 0.054 | 
5 | Fc1ccc(-c2c(-c3ccccn3)nc3ccccn23)cc1 [OSA_000859] |  |  |  |  |  |  |  |  |  |  | 10.3 µM |  | > 32 µg/mL | 17 µM | 32 µg/mL (≈ 111 µM) | 4.54 µM | 32 µM | 3 |  | Rat Hep CLint (NEU) [7]: 49.8 uL/min/10x6 cells; HLM CLint (NEU) [8]: 168 uL/min/mg protein; Aqueous Solubility (NEU) (Aqueous solubility): 178 µM
6 | COc1ccn2c(-c3ccccc3)c(-c3ccccn3)nc2c1 [OSA_000860] |  |  |  |  |  |  |  |  | 23.9 µL/min/1e6 cells | 224 µL/min/mg | 3.92 µM | 79 µM (≈ 23.8 µg/mL) | 32 µg/mL (≈ 106 µM) | 5.01 µM | 8 µg/mL (≈ 26.5 µM) | 0.73 µM | 8 µM | 3.1 | 0.028 | 
